Assay [1] deals with hGYS1 enzyme (recombinant hGYS1/GN1 protein) (Homo sapiens (Human), UniProt P13807). The assay can be described thus: GYS1 coupled enzyme assay (PK/LDH). The class given is biochemical. Conditions: hGYS1/GN1 50 nM, UDP-Glucose 0.8 mM, G6P 1 mM; geometric mean of at least 2 runs.
Assay [2] has as its target hGYS2 enzyme (recombinant hGYS2/GN1 protein) (Homo sapiens (Human), UniProt P54840). The assay can be described thus: GYS2 coupled enzyme assay (PK/LDH). Conditions: geometric mean of at least 2 assay runs on separate days, read-out: Avg_IC50. The class given is biochemical. Put shortly: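 Read-out: NADH loss at 340 nm, read each minute for 10 min, slope normalized to controls, duplicate % inhibition fit to Hill (0–100). Enzyme: 200 nM hGYS2/GN1; substrate 2 mM UDP-glucose plus 0.2% glycogen and 2 mM G6P; pH 7.5 Tris, 2.5% DMSO.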

Chain of hGYS2 enzyme (recombinant hGYS2/GN1 protein) (P54840 whole entry): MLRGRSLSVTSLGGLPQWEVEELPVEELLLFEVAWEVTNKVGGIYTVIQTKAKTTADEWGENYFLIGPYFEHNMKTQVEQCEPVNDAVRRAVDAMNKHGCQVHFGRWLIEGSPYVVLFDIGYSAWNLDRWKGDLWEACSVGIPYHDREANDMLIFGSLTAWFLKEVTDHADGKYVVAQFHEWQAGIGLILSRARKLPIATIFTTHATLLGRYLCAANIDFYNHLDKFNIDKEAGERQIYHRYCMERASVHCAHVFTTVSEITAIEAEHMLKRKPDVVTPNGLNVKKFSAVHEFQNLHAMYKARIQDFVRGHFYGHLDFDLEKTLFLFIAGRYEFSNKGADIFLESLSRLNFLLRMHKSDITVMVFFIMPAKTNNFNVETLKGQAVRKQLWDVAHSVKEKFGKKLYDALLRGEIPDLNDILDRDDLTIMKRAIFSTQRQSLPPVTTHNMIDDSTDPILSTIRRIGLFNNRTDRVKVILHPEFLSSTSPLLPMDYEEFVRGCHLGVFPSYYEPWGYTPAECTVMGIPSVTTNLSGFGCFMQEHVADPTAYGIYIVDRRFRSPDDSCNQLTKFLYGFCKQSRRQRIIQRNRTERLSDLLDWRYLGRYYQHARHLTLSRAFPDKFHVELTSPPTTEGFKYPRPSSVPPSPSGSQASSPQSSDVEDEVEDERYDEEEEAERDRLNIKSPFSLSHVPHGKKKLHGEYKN
Chain of hGYS2 enzyme (recombinant hGYS2/GN1 protein) (P46976 whole entry partner): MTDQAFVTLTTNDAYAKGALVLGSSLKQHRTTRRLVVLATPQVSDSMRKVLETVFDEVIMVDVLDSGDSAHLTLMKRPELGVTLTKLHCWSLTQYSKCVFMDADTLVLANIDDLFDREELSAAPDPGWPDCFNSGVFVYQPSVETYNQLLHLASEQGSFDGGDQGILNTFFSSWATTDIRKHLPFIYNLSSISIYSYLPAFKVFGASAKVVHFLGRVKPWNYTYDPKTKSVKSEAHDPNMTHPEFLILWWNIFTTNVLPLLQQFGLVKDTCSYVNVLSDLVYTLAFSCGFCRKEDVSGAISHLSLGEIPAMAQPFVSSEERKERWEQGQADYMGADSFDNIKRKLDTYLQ
Chain of hGYS1 enzyme (recombinant hGYS1/GN1 protein) (P13807 whole entry): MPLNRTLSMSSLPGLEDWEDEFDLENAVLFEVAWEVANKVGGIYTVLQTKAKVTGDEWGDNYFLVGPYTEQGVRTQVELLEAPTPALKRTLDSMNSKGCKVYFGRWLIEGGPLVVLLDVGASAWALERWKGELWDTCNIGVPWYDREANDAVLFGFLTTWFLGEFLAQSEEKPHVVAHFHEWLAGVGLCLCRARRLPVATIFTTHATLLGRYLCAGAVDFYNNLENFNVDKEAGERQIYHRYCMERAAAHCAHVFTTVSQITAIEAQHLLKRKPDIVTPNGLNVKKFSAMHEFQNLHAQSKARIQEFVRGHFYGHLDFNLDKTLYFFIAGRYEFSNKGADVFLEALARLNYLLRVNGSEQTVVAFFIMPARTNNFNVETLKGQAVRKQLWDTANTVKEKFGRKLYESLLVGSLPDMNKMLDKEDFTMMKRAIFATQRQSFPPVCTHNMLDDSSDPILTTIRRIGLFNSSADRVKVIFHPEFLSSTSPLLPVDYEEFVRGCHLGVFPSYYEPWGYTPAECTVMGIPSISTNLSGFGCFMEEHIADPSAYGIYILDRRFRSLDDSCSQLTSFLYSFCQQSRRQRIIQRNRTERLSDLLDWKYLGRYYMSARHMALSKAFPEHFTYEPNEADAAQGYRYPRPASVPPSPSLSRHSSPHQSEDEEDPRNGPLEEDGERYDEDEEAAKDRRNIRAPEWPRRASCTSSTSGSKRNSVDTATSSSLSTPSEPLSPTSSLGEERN
Chain of hGYS1 enzyme (recombinant hGYS1/GN1 protein) (P46976 whole entry partner): as the sequence (P46976 whole entry partner) above

On to `CC(C)c1ccc([C@@H](NC(=O)[C@@H]2C[C@@H](F)CN2C(=O)CCc2cn[nH]c2)c2ccccc2)cc1` [Compound 46, (2S,4R)-4-fluoro-N-[(S)-phenyl[4-(propan-2-yl)phenyl]methyl]-1-[3-(1H-pyrazol-4-yl)propanoyl]pyrrolidine-2-carboxamide], for which the IC50 in assay [1] was 0.136 µM; in assay [2], more than 100 µM.
As to `CC(C)c1ccc([C@@H](NC(=O)[C@@H]2C[C@@H](F)CN2C(=O)COc2cccnc2)c2ccccc2)cc1` [Compound 48, (2S,4R)-4-fluoro-N-[(S)-phenyl[4-(propan-2-yl)phenyl]methyl]-1-[2-(pyridin-3-yloxy)acetyl]pyrrolidine-2-carboxamide], the IC50 is 0.044 µM in assay [1] and more than 100 µM in assay [2].
For the compound `CC(C)c1ccc([C@@H](NC(=O)[C@@H]2C[C@@H](F)CN2C(=O)Cc2cnn(C)c2)c2ccccc2)cc1` [Compound 50, (2S,4R)-4-fluoro-1-[2-(1-methyl-1H-pyrazol-4-yl)acetyl]-N-[(S)-phenyl[4-(propan-2-yl)phenyl]methyl]pyrrolidine-2-carboxamide], the figures for the IC50 in assay [1] and in assay [2] were 0.017 µM and more than 100 µM, respectively.
Regarding `CC(C)c1ccc([C@@H](NC(=O)[C@@H]2C[C@@H](F)CN2C(=O)Cn2ccccc2=O)c2ccccc2)cc1` [Compound 51, (2S,4R)-4-fluoro-1-[2-(2-oxo-1,2-dihydropyridin-1-yl)acetyl]-N-[(S)-phenyl[4-(propan-2-yl)phenyl]methyl]pyrrolidine-2-carboxamide], the IC50 in assay [1] was 0.019 µM; in assay [2] it was more than 100 µM.
Turning to `Cc1nc(CC(=O)N2C[C@H](F)C[C@H]2C(=O)N[C@@H](c2ccccc2)c2ccc(C(C)C)cc2)cs1` [Compound 52, (2S,4R)-4-fluoro-1-[2-(2-methyl-1,3-thiazol-4-yl)acetyl]-N-[(S)-phenyl[4-(propan-2-yl)phenyl]methyl]pyrrolidine-2-carboxamide], the IC50 in assay [1] was 0.037 µM; in assay [2], more than 100 µM.
With `Cc1ccn(CC(=O)N2C[C@H](F)C[C@H]2C(=O)N[C@@H](c2ccccc2)c2ccc(C(C)C)cc2)n1` [Compound 55, (2S,4R)-4-fluoro-1-[2-(3-methyl-1H-pyrazol-1-yl)acetyl]-N-[(S)-phenyl[4-(propan-2-yl)phenyl]methyl]pyrrolidine-2-carboxamide], the IC50 in assay [1] is 0.043 µM; in assay [2], more than 100 µM.
For `Cc1cnn(CC(=O)N2C[C@H](F)C[C@H]2C(=O)N[C@@H](c2ccccc2)c2ccc(C(C)C)cc2)c1` [Compound 56, (2S,4R)-4-fluoro-1-[2-(4-methyl-1H-pyrazol-1-yl)acetyl]-N-[(S)-phenyl[4-(propan-2-yl)phenyl]methyl]pyrrolidine-2-carboxamide], in that order: 0.041 µM and more than 100 µM.
The like results for `CC(C)c1ccc([C@@H](NC(=O)[C@@H]2C[C@@H](F)CN2C(=O)[C@@H]2CCC(=O)N2C)c2ccccc2)cc1` [Compound 57, (2S,4R)-4-fluoro-1-[(2S)-1-methyl-5-oxopyrrolidine-2-carbonyl]-N-[(S)-phenyl[4-(propan-2-yl)phenyl]methyl]pyrrolidine-2-carboxamide] were, in that order, 0.231 µM and more than 100 µM.
The like results for `CC(C)c1ccc([C@@H](NC(=O)[C@@H]2C[C@@H](F)CN2C(=O)C2CCC(=O)NC2)c2ccccc2)cc1` (stereo partly drawn) [Compound 58, (2S,4R)-4-fluoro-1-(6-oxopiperidine-3-carbonyl)-N-[(S)-phenyl[4-(propan-2-yl)phenyl]methyl]pyrrolidine-2-carboxamide] were, in that order, 0.145 µM and more than 100 µM.
Turning to `CC(C)c1ccc([C@@H](NC(=O)[C@@H]2C[C@@H](F)CN2C(=O)CCc2cnccn2)c2ccccc2)cc1` [Compound 59, (2S,4R)-4-fluoro-N-[(S)-phenyl[4-(propan-2-yl)phenyl]methyl]-1-[3-(pyrazin-2-yl)propanoyl]pyrrolidine-2-carboxamide], the values for the IC50 in assay [1] and in assay [2] were 0.085 µM and more than 100 µM, respectively.
For `CC(C)c1ccc([C@@H](NC(=O)[C@@H]2C[C@@H](F)CN2C(=O)CCc2cncnc2)c2ccccc2)cc1` [Compound 60, (2S,4R)-4-fluoro-N-[(S)-phenyl[4-(propan-2-yl)phenyl]methyl]-1-[3-(pyrimidin-5-yl)propanoyl]pyrrolidine-2-carboxamide], in that order: 0.188 µM and more than 100 µM.
For `COc1nn(C)cc1C(=O)N1C[C@H](F)C[C@H]1C(=O)N[C@@H](c1ccccc1)c1ccc(C(C)C)cc1` [Compound 61, (2S,4R)-4-fluoro-1-(3-methoxy-1-methyl-1H-pyrazole-4-carbonyl)-N-[(S)-phenyl[4-(propan-2-yl)phenyl]methyl]pyrrolidine-2-carboxamide], the IC50 in assay [1] is 0.243 µM; in assay [2], more than 100 µM.
In the case of `Cc1nnc(CCC(=O)N2C[C@H](F)C[C@H]2C(=O)N[C@@H](c2ccccc2)c2ccc(C(C)C)cc2)s1` [Compound 62, (2S,4R)-4-fluoro-1-[3-(5-methyl-1,3,4-thiadiazol-2-yl)propanoyl]-N-[(S)-phenyl[4-(propan-2-yl)phenyl]methyl]pyrrolidine-2-carboxamide], the IC50 in assay [1] was 0.064 µM; in assay [2] it was more than 100 µM.
Take `CC(C)c1ccc([C@@H](NC(=O)[C@@H]2C[C@@H](F)CN2C(=O)Cc2cc(F)ccc2Cl)c2ccccc2)cc1` [Compound 63, (2S,4R)-1-[2-(2-chloro-5-fluorophenyl]acetyl]-4-fluoro-N-[(S)-phenyl[4-(propan-2-yl)phenyl]methyl]pyrrolidine-2-carboxamide]: the figures for the IC50 in assay [1] and in assay [2] were 0.015 µM and more than 100 µM, respectively.
For `CC(C)c1ccc([C@@H](NC(=O)[C@@H]2C[C@@H](F)CN2C(=O)C(C)c2ccccn2)c2ccccc2)cc1` (stereo partly drawn) [Compound 64, (2S,4R)-4-fluoro-N-[(S)-phenyl[4-(propan-2-yl)phenyl]methyl]-1-[2-(pyridin-2-yl)propanoyl]pyrrolidine-2-carboxamide], in that order: 0.081 µM and more than 100 µM.
`CC(C)c1ccc([C@@H](NC(=O)[C@@H]2C[C@@H](F)CN2C(=O)CCc2ccccn2)c2ccccc2)cc1` [Compound 65, (2S,4R)-4-fluoro-N-[(S)-phenyl[4-(propan-2-yl)phenyl]methyl]-1-[3-(pyridin-2-yl)propanoyl]pyrrolidine-2-carboxamide]: the figures for the IC50 in assay [1] and in assay [2] were 0.076 µM and more than 100 µM, respectively.
For `CC(C)c1ccc([C@@H](NC(=O)[C@@H]2C[C@@H](F)CN2C(=O)CNC(=O)N(C)C)c2ccccc2)cc1` [Compound 67, (2S,4R)-1-{2-[(dimethylcarbamoyl)amino]acetyl}-4-fluoro-N-[(S)-phenyl[4-(propan-2-yl)phenyl]methyl]pyrrolidine-2-carboxamide], in that order: 0.01 µM and more than 100 µM.
As for `CC(C)c1ccc([C@@H](NC(=O)[C@@H]2C[C@@H](F)CN2C(=O)Cn2nnc3ccccc32)c2ccccc2)cc1` [Compound 68, (2S,4R)-1-[2-(1H-1,2,3-benzotriazol-1-yl)acetyl]-4-fluoro-N-[(S)-phenyl[4-(propan-2-yl)phenyl]methyl]pyrrolidine-2-carboxamide], the IC50 in assay [1] was 0.034 µM; in assay [2], more than 100 µM.
For `Cc1nc(CC(=O)N2C[C@H](F)C[C@H]2C(=O)N[C@@H](c2ccccc2)c2ccc(C(C)C)cc2)c(C)s1` [Compound 69, (2S,4R)-1-[2-(2,5-dimethyl-1,3-thiazol-4-yl)acetyl]-4-fluoro-N-[(S)-phenyl[4-(propan-2-yl)phenyl]methyl]pyrrolidine-2-carboxamide], in that order: 0.036 µM and more than 100 µM.
For the compound `Cc1noc(C)c1CC(=O)N1C[C@H](F)C[C@H]1C(=O)N[C@@H](c1ccccc1)c1ccc(C(C)C)cc1` [Compound 70, (2S,4R)-1-[2-(3,5-dimethyl-1,2-oxazol-4-yl)acetyl]-4-fluoro-N-[(S)-phenyl[4-(propan-2-yl)phenyl]methyl]pyrrolidine-2-carboxamide], the IC50 in assay [1] is 0.05 µM; in assay [2] it was more than 100 µM.
As to `CC(C)c1ccc([C@@H](NC(=O)[C@@H]2C[C@@H](F)CN2C(=O)C(C)n2ccccc2=O)c2ccccc2)cc1` (stereo partly drawn) [Compound 73, (2S,4R)-4-fluoro-1-[2-(2-oxo-1,2-dihydropyridin-1-yl)propanoyl]-N-[(S)-phenyl[4-(propan-2-yl)phenyl]methyl]pyrrolidine-2-carboxamide], the IC50 was 0.105 µM in assay [1] and more than 100 µM in assay [2].
The like results for `CC(C)c1ccc([C@@H](NC(=O)[C@@H]2C[C@@H](F)CN2C(=O)CCCn2ccnc2)c2ccccc2)cc1` [Compound 75, (2S,4R)-4-fluoro-1-[4-(1H-imidazol-1-yl)butanoyl]-N-[(S)-phenyl[4-(propan-2-yl)phenyl]methyl]pyrrolidine-2-carboxamide] were, in that order, 0.224 µM and more than 100 µM.
The like results for `CC(C)c1ccc([C@@H](NC(=O)[C@@H]2C[C@@H](F)CN2C(=O)CCc2cnn(C)c2)c2ccccc2)cc1` [Compound 76, (2S,4R)-4-fluoro-1-[3-(1-methyl-1H-pyrazol-4-yl)propanoyl]-N-[(S)-phenyl[4-(propan-2-yl)phenyl]methyl]pyrrolidine-2-carboxamide] were, in that order, 0.106 µM and more than 100 µM.
With `COc1cccc(CC(=O)N2C[C@H](F)C[C@H]2C(=O)N[C@@H](c2ccccc2)c2ccc(C(C)C)cc2)n1` [Compound 81, (2S,4R)-4-fluoro-1-[2-(6-methoxypyridin-2-yl)acetyl]-N-[(S)-phenyl[4-(propan-2-yl)phenyl]methyl]pyrrolidine-2-carboxamide], the IC50 in assay [1] is 0.025 µM; in assay [2], more than 100 µM.

The record behind these values is patent publication US11814367B2, “Inhibitors of glycogen synthase 1 (GYS1) and methods of use thereof” (Maze Therapeutics, Inc., priority 2021, dated 2023).
